The results in this text go back to patent US6534495B1, “Serine protease inhibitors” (Akzo Nebel, priority 1997, dated 2003).

SMILES strings stand for the structures.

T1 sequence (P08709 213-466 limits assumed): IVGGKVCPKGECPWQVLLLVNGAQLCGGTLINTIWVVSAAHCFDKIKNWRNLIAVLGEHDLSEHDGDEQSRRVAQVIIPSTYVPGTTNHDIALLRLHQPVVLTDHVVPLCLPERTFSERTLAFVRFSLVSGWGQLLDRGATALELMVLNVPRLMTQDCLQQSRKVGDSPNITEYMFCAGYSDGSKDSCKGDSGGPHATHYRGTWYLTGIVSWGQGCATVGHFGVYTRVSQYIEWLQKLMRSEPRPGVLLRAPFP
T1 sequence (P08709 61-212 limits assumed): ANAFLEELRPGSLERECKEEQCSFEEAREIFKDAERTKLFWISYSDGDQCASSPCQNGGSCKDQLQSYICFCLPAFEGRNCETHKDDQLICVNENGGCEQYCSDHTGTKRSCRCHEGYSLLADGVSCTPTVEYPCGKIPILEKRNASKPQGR
T1 sequence (P13726 33-295 partner): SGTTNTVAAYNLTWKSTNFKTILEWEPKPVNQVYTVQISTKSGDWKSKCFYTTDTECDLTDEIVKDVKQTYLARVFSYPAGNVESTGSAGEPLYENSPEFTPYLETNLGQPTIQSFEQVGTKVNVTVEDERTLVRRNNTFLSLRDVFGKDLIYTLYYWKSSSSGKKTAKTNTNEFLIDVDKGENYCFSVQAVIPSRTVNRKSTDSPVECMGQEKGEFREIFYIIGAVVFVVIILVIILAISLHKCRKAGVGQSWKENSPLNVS

The first assay addresses T1, recombinant human factor VIIa / recombinant human Tissue Factor complex (Homo sapiens, UniProt P08709).
T1 construct: purchased American Diagnostica Inc, Greenwich, Conn
The experiment in a line: Anti factor VIIa/tissue factor assay (amidolysis of Pefachrome VIIa). Type of assay: biochemical. The following applies: reference compound; 50% inhibition of the amidolytic reaction at 90 min. The text has this: III. Anti Factor VIIa/Tissue Factor Assay
Vascular damage initiates a series of enzyme generation reactions ultimately leading to the formation of a fibrin gel at the site of the injury. The primary enzyme generation reaction is the generation of activated factor VII (VIIa) from proenzyme factor VII. This activation reaction takes place by an as yet unknown mechanism. […] The activated Factor VII then also binds to membrane-bound TF and this […] tenase complex next converts Factor X into Factor Xa.
Thrombosis develops when there is insufficient control of the coagulation reaction. One way to restore this control is by inhibiting essential coagulation enzymes such as for instance the complex of membrane-bound TF and Factor VIIa. […] A method is described by which the inhibitory potency of compounds towards VIIa/TF complex can be established. Test compounds are mixed at various concentrations with factor VIIa and TF and with a chromogenic substrate, which is known to be split far better by TF-bound VIIa than by free VIIa. The amidolytic reaction taking place is continuously monitored in a microtiter plate reader. Inhibitory potency of the compounds investigated is expressed by the IC50, defined as the concentration of compounds yielding 50% inhibition of the amidolytic reaction, ninety minutes after the start of the reaction.
A ten times concentrated Hepes buffer made by dissolving 29.40 g CaCl2.2H2O, 47.66 g Hepes, 87.66 g NaCl and 30.00 g polyethyleneglycol (PEG) MW=6000 in 1000 ml aqua bidest. After the solution has been heated to 37° C., the pH of the buffer is set on 7.40 with help of 10 molar NaOH. The concentrated buffer solution is stored at 4° C. and is stable for at least two months at this condition. Prior to use the buffer is diluted in aqua bidest. 1 to 8 to obtain a final concentration in the wells (See test procedure) of 20 mM CaCl2, 20 mM Hepes, 150 mM NaCl and 0.3% PEG6000. If compounds are dissolved and diluted in aqua bidest. or another vehicle because of an insufficient solubility the Hepes buffer can be diluted 1 to 6 to preserve the same ionic strength in the test.
Recombinant Human Factor VIIa
Recombinant human factor VIIa is obtained from American Diagnostica Inc, Greenwich, Conn. Each vial contains 1.2 mg recombinant human factor VIIa, which is lyophilized from 2 ml buffer composed of 10 mM glycylglycine, 50 mM NaCl, 10 mM CaCl2, 30 mg/ml mannitol, 0.1% Tween, pH 5.5. The contents of each of these vials is reconstituted with 2 ml aqua bidest. as indicated by the manufacturer. The 2 ml 1.2*10^−5 stock solution thus obtained is divided in smaller fractions, which are stored at −30° C. At this condition these VIIa samples are stable for at least 6 months.
Recombinant Human Tissue Factor
Recombinant human Tissue Factor is obtained from American Diagnostica Inc, Greenwich, Conn. Each vial contains 25 μg recombinant human Tissue Factor (non-lipidated, MW 35000 Dalton), which is lyophilized from 1 ml Tris/HCl buffer (pH 8.0) composed of 150 mM NaCl, 200 mM mannitol and 10 mM CHAPS (Steroid derivative used to solubilize membrane proteins; see Merck Index). The contents of each vial is reconstituted with 1 ml aqua bidest. as indicated by the manufacturer. The 1 ml 7.14×10^−7 M stock solution thus obtained is divided in smaller fractions, which are stored at −30° C. Thus stored these VIIa samples are stable for at least 67 months. […]
Consider `NC(N)=NCCC[C@H](NC(=O)[C@@H]1CCCN1C(=O)[C@H](N)Cc1ccccc1)C(=O)CCl` [Org 34593, reference compound], for which the concentration for half-maximal inhibition (IC50) (commonly the point on the concentration scale where inhibition reaches its midpoint) amounted to 0.3 µM.

The assay is the same for the next values; noted with them: single point, at a concentration of 1×10^−5 M.
`CCS(=O)(=O)N[C@@H](CC(N)=O)C(=O)N[C@@H](CC(C)C)C(=O)N[C@@H](CCCCN)C(=O)C(=O)OC(C)C` [EtSO2-Asn-Leu-LysΨ[COCO]-O-iPropyl]: the “percentage inhibition, anti factor VIIa/tissue factor activity” value was found to be 56%.
On the same count and under the same terms, to `CCS(=O)(=O)N[C@H](Cc1ccccc1)C(=O)N[C@@H](CC(C)C)C(=O)N[C@@H](CCCCN)C(=O)C(=O)OC(C)C` [EtSO2-D-Phe-Leu-LysΨ[COCO]-O-iPropyl] belongs 98%; to `CCS(=O)(=O)N1Cc2ccccc2C[C@@H]1C(=O)N[C@@H](Cc1ccccc1)C(=O)N[C@@H](CCCCN)C(=O)C(=O)OC(C)C` [EtSO2-D-3-Tiq-Phe-LysΨ[COCO]-O-iPropyl], 91%.
As to `CCS(=O)(=O)N[C@H](CC(C)C)C(=O)N[C@@H](CCC(N)=O)C(=O)N[C@@H](CCCCN)C(=O)C(=O)OC(C)C` [EtSO2-D-Leu-Gln-LysΨ[COCO]-O-iPropyl], the “percentage inhibition, anti factor VIIa/tissue factor activity” value is listed as 94%.

The target of another assay is T2, Human thrombin (Homo sapiens, UniProt P00734).
T2 construct: purchased Centraal Laboratorium voor Bloedtransfusie, Amsterdam, The Netherlands
The experiment in a line: Anti-thrombin assay (hydrolysis of chromogenic substrate S-2238). The format is biochemical. Conditions: S-2238, TNP buffer, 37° C., read-out: IC50, antithrombin activity. The procedure:
Thrombin (Factor […]) is a factor in the coagulation cascade.
The anti-thrombin activity of compounds of the present invention was assessed by measuring spectrophotometrically the rate of hydrolysis of the chromogenic substrate s-2238 exterted by thrombin. This assay for anti-thrombin activity in a buffer system was used to assess the IC50-value of a test compound.
Test medium: Tromethamine-NaCl-polyethylene glycol 6000 (TNP) buffer
Reference compound: 12581 (Kabi)
Solubilisation can be assisted with dimethylsulfoxide, methanol, ethanol, acetonitrile or tert.-butyl alcohol which are without adverse effects in concentrations up to 2.5% in the final reaction mixture.
1. Tromethamine-NaCl (TN) buffer
Composition of the buffer:
The pH of the solution is adjusted to 7.4 at 37° C. with HCl (10 mmol.l^−1).
Polyethylene glycol 6000 is dissolved in TN buffer to give a concentration of 3 g.l^−1.
One vial S-2238 (25 mg; Kabi Diagnostica, Sweden) is dissolved in 20 ml TN buffer to give a concentration of 1.25 mg.ml^−1 (2 mmol.l^−1).
Human thrombin (16 000 nKat.vial^−1; Centraal Laboratorium voor Bloedtransfusie, Amsterdam, The Netherlands) is dissolved in TNP buffer to give a stock solution of 835 nKat.ml^−1.
Immediately before use this solution is diluted with TNP buffer to give a concentration of 3.34 nKat.ml^−1.
All ingredients used are of analytical grade
For aqueous solutions ultrapure water (Milli-Q quality) is used.
Preparation of Test and Reference Compound Solutions
The test and reference compounds are dissolved in Milli-Q water to give stock concentrations of 10^−2 mol.l^−1. Each concentration is stepwise diluted with the vehicle to give concentrations of […], 10^−4 and 10^−5 mol.l^−1. The dilutions, including the stock solution, are used in the assay (final concentrations in the reaction mixture: 3·10^−3; 10^−3; 3·10^−4; 10^−4; 3·10^−5; 10^−5, 3·10^−6 and 10^−6 mol.l^−1, respectively).
At room temperature 0.075 ml and 0.025 ml test compound or reference compound solutions or vehicle are alternately pipetted into the wells of a microtiter plate and these solutions are diluted with 0.115 ml and 0.0165 ml TNP buffer, respectively. […] Starting after 1 min of incubation, the absorbance of each sample at 405 nm is measured every 2 min. for a period of 90 min. using a kinetic microtiter plate reader (Twinreader plus, Flow Laboratories).
All data are collected in an IBM personal computer using LOTUS-MEASURE. For each compound concentration (expressed in mol.l^−1 reaction mixture) and for the blank the absorbance is plotted versus the reaction time in min.
Evaluation of responses: For each final concentration the maximum absorbance was calculated from the assay plot. […]
With `CCS(=O)(=O)NC(Cc1ccc(OC)cc1)C(=O)N1CCCC1C(=O)NC(CCCCN)C(=O)C(=O)N1CCC1` [Example 38, EtSO2-D-Tyr(Me)-Pro -LysΨ[COCO]-Azetidine], the IC50 worked out at 0.11 µM.
Same read-out and setting: to `CC(C)OC(=O)C(=O)C(CCCCN)NC(=O)C1CCCN1C(=O)C(CC1CCCCC1)NS(=O)(=O)CC12CCC(CC1=O)C2(C)C` [Example 24, (10-Camphor)SO2-D-Cha-Pro-LysΨ[COCO]—O-iPropyl] belongs 0.01 µM; to `CC(C)OC(=O)C(=O)C(CCCCN)NC(=O)C1CCCN1C(=O)C(NS(=O)(=O)Cc1ccccc1)C(c1ccccc1)c1ccccc1` [Example 40, BzlSO2-D-Dpa-Pro-LysΨ[COCO]—O-iPropyl], 0.02 µM.
For `NCCCCC(NC(=O)CN1CCCCC(NS(=O)(=O)Cc2ccccc2)C1=O)C(=O)C(N)=O` (stereo not drawn) [Example 4, BzlSO2-norLeu(cyclo)-Gly-LysΨ[COCO]—NH2], the IC50 was determined as 0.09 µM.

The target of the next assay is T3, Bovine Factor Xa Human (Bos taurus, UniProt P00743).
T3 construct: purchased Kabi Diagnostica
T3 sequence (P00743 234-492 limits assumed): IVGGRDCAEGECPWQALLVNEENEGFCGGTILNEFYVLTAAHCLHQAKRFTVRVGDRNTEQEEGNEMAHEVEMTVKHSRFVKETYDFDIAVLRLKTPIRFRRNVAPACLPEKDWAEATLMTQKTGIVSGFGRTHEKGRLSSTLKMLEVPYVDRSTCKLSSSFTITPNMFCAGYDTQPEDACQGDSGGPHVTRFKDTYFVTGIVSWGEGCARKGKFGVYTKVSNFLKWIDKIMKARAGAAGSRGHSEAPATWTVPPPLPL
T3 sequence (P00743 41-180 limits assumed): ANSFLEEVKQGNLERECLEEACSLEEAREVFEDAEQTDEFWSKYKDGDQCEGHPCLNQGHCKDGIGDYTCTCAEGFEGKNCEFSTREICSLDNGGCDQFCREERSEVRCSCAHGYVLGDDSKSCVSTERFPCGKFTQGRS
Nature of the assay: Anti-factor Xa assay (hydrolysis of chromogenic substrate S-2222). The following applies: S-2222, TNP buffer, 37° C. The format is biochemical. The procedure: Activated Factor X (Xa) is a factor in the coagulation cascade. The anti-Xa activity of compounds of the present invention was assessed by measuring spectrophotometrically the rate of hydrolysis of the chromogenic substrate s-2222 exterted by Xa. This assay for anti-Xa activity in a buffer system was used to assess the IC50-value of the test compound.
In general the followed procedure and test conditions were analogous to those of the anti-thrombin assay as described above. Differences are indicated below.
Reference compound: benzamidine
Solubilisation can be assisted with dimethylsulfoxide, methanol, ethanol, acetonitrile or tert.-butyl alcohol which are without adverse effects in concentrations up to 1% (for DMSO) and 2.5% (for the other solvents) in the final reaction mixture.
One vial S-2222 (15 mg; Kabi Diagnostica, Sweden) is dissolved in 10 ml water to give a concentration of 1.5 mg.ml^−1 (2 mmol.l^−1).
Bovine Factor Xa Human (71 nKat.vial^−1, Kabi Diagnostica) is dissolved in 10 ml TNP buffer and then further diluted with 30 ml TNP buffer to give a concentration of 1.77 nKat.ml^−1. The dilution has to be freshly prepared.
Instead of the S-2238 solution (in anti-thrombin assay), the above S-2222 solution is added to each well in this assay.
As to `NCCCCC(NC(=O)CN1CCCCC(NS(=O)(=O)Cc2ccccc2)C1=O)C(=O)C(=O)NCc1ccccc1` (stereo not drawn) [Example 1, BzlSO2-norLeu(cyclo)-Gly-LysΨ[COCO]-NHBzl], the midpoint of inhibition, the IC50, lay at 0.64 µM.
Same read-out and setting: the value for `CCOC(=O)C(=O)C(CCCCN)NC(=O)C1CCCN1C(=O)C(CC1CCCCC1)NS(=O)(=O)CC` [Example 5, EthylSO2-D-Cha-Pro-LysTr[COCO]-OEt] was 0.28 µM; that for `CC(C)OC(=O)C(=O)C(CCCCN)NC(=O)C1CCCN1C(=O)C(CC1CCCCC1)NS(=O)(=O)Cc1ccccc1` [Example 28, BenzylSO2-D-Cha-Pro-LysΨ[COCO]—O-iPropyl] was 0.02 µM.
